Measurements reported in ChEMBL document CHEMBL1132393, “Structure-activity relationships of a novel class of Src SH2 inhibitors” (Bioorg Med Chem Lett, 1999).

target: Proto-oncogene tyrosine-protein kinase Src (Homo sapiens, UniProt P12931); experiment: Binding affinity against Src-homology 2 (SRC SH2).
Sequence (P12931 2-536 limits assumed): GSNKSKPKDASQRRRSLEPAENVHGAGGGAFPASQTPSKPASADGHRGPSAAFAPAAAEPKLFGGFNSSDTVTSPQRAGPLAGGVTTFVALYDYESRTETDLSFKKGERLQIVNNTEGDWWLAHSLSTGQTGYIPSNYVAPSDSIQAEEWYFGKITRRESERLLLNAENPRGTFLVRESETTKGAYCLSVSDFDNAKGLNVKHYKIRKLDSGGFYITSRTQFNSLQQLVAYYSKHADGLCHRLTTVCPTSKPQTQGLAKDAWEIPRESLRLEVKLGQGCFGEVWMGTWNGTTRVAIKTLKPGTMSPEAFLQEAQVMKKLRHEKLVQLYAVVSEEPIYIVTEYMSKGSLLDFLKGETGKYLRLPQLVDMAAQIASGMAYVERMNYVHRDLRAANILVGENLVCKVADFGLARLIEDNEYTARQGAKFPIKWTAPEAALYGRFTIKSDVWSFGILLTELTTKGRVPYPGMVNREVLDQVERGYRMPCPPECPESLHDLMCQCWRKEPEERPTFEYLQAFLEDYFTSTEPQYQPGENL

Row | Compound | IC50
1 | CC(=O)N[C@@H](Cc1ccc(OP(=O)(O)O)cc1)C(=O)N[C@@H](CCC(N)=O)c1nc(CC2CCCCC2)no1 | 278 µM
2 | CC(=O)N[C@@H](Cc1ccc(OP(=O)(O)O)cc1)C(=O)NCc1nc(CC2CCCCC2)cs1 | 483 µM
3 | CC(=O)N[C@@H](Cc1ccc(OP(=O)(O)O)cc1)C(=O)N[C@@H](CCC(=O)O)c1nc(CC(C)C)cs1 | 218 µM
4 | CC(=O)N[C@@H](Cc1ccc(OP(=O)(O)O)cc1)C(=O)N[C@@H](CCC(=O)O)c1nc(CC(C)C)no1 | 166 µM
5 | CC[C@H](NC(=O)[C@H](Cc1ccc(OP(=O)(O)O)cc1)NC(C)=O)c1nc(CCC(C)C)no1 | 111 µM
6 | CC(=O)N[C@@H](Cc1ccc(OP(=O)(O)O)cc1)C(=O)N[C@@H](Cc1c[nH]c2ccccc12)c1nc(Cc2cccc3ccccc23)no1 | 279 µM
7 | CC(=O)N[C@@H](Cc1ccc(OP(=O)(O)O)cc1)C(=O)N[C@@H](CCC(=O)O)c1nc(CCC(C)C)cs1 | 76 µM
8 | CC(=O)N[C@@H](Cc1ccc(OP(=O)(O)O)cc1)C(=O)N[C@@H](CCC(N)=O)c1nc(CCC(C)C)no1 | 320 µM
9 | CC(=O)N[C@@H](Cc1ccc(OP(=O)(O)O)cc1)C(=O)NCc1nc(CC2CCCCC2)no1 | 896 µM
10 | CC(=O)N[C@@H](Cc1ccc(OP(=O)(O)O)cc1)C(=O)N[C@@H](Cc1c[nH]c2ccccc12)c1nc(CCCC(C)C)no1 | 89 µM
11 | CCCCCc1noc([C@H](CC)NC(=O)[C@H](Cc2ccc(OP(=O)(O)O)cc2)NC(C)=O)n1 | 65 µM
12 | CCCCc1noc([C@H](CCC(N)=O)NC(=O)[C@H](Cc2ccc(OP(=O)(O)O)cc2)NC(C)=O)n1 | 384 µM
13 | CC(=O)N[C@@H](Cc1ccc(OP(=O)(O)O)cc1)C(=O)N[C@@H](CCC(=O)O)c1nc(Cc2ccccc2)no1 | 92 µM

Stronger by IC50, values ahead:

Row | IC50 | Compound
14 | 62 µM | CC(=O)N[C@@H](Cc1ccc(OP(=O)(O)O)cc1)C(=O)N[C@@H](Cc1c[nH]c2ccccc12)c1nc(CC2CCCCC2)no1
15 | 61 µM | CC(=O)N[C@@H](Cc1ccc(OP(=O)(O)O)cc1)C(=O)N[C@@H](CCC(=O)O)c1nc(CCC(C)C)no1
16 | 36 µM | CCCCCc1noc([C@H](Cc2c[nH]c3ccccc23)NC(=O)[C@H](Cc2ccc(OP(=O)(O)O)cc2)NC(C)=O)n1
17 | 35 µM | CCCCCCCc1noc([C@H](Cc2c[nH]c3ccccc23)NC(=O)[C@H](Cc2ccc(OP(=O)(O)O)cc2)NC(C)=O)n1
18 | 33 µM | CC(=O)N[C@@H](Cc1ccc(OP(=O)(O)O)cc1)C(=O)N[C@@H](Cc1c[nH]c2ccccc12)c1nc(CCC(C)C)no1
19 | 29 µM | CC(=O)N[C@@H](Cc1ccc(OP(=O)(O)O)cc1)C(=O)N[C@@H](CCC(=O)O)c1nc(CC2CCCCC2)no1
20 | 26 µM | CC(=O)N[C@@H](Cc1ccc(OP(=O)(O)O)cc1)C(=O)N[C@@H](CCC(=O)O)c1nc(CC2CCCCC2)cs1
21 | 25 µM | CC(=O)N[C@@H](Cc1ccc(OP(=O)(O)O)cc1)C(=O)N[C@@H](Cc1c[nH]c2ccccc12)c1nc(Cc2ccccc2)no1
22 | 25 µM | CCCCCCc1noc([C@H](CC)NC(=O)[C@H](Cc2ccc(OP(=O)(O)O)cc2)NC(C)=O)n1
23 | 24 µM | CCCCCCc1noc([C@H](CCC(N)=O)NC(=O)[C@H](Cc2ccc(OP(=O)(O)O)cc2)NC(C)=O)n1
24 | 22 µM | CCCCCCCc1noc([C@H](CC)NC(=O)[C@H](Cc2ccc(OP(=O)(O)O)cc2)NC(C)=O)n1
25 | 21 µM | CCCCCc1noc([C@H](CCC(=O)O)NC(=O)[C@H](Cc2ccc(OP(=O)(O)O)cc2)NC(C)=O)n1
26 | 16 µM | CCCCCCc1noc([C@H](Cc2c[nH]c3ccccc23)NC(=O)[C@H](Cc2ccc(OP(=O)(O)O)cc2)NC(C)=O)n1
27 | 16 µM | CC(=O)N[C@@H](Cc1ccc(OP(=O)(O)O)cc1)C(=O)N[C@@H](CCC(=O)O)c1ncc(CC2CCCCC2)s1
28 | 14 µM | CCCCCCc1cnc([C@H](Cc2c[nH]c3ccccc23)NC(=O)[C@H](Cc2ccc(OP(=O)(O)O)cc2)NC(C)=O)s1
29 | 12 µM | CCCCCCc1cnc([C@H](CC)NC(=O)[C@H](Cc2ccc(OP(=O)(O)O)cc2)NC(C)=O)s1
30 | 8 µM | CCCCCCc1noc([C@H](CCC(=O)O)NC(=O)[C@H](Cc2ccc(OP(=O)(O)O)cc2)NC(C)=O)n1
31 | 7 µM | CCCCCCCc1noc([C@H](CCC(=O)O)NC(=O)[C@H](Cc2ccc(OP(=O)(O)O)cc2)NC(C)=O)n1
